Among the data in ChEMBL document CHEMBL3045720, “Synthesis and antifungal activity of 2-chloromethyl-1H-benzimidazole derivatives against phytopathogenic fungi in vitro” (J Agric Food Chem, 2013) are inhibition of growth values, retold here.

Structures are written as SMILES.

The test system of one test is Botrytis cinerea. Description: Antifungal activity against Botryotinia fuckeliana assessed as inhibition of mycelium growth at 100 ug/ml […]. It counts as functional. Conditions: 168 h, read-out: GI.
For a further test, the system named is Cytospora. Description: Antifungal activity against Cytospora sp. assessed as inhibition of mycelium growth at 100 ug/ml after 3 to 4 days. The note with it: 72 to 96 h, read-out: GI.
The subject of test [1] is Colletotrichum gloeosporioides. Description: Antifungal activity against Colletotrichum gloeosporioides assessed as inhibition of mycelium growth at 100 ug/ml after 3 to 4 days. The note with it: 72 to 96 h, read-out: GI.
In the next test the test system is Alternaria solani. Description: Antifungal activity against Alternaria solani assessed as inhibition of mycelium growth at 100 ug/ml […]. It counts as functional. The note with it: 168 h, read-out: GI.
A further test concerns Fusarium solani. Kind of test: Antifungal activity against Fusarium solani assessed as inhibition of mycelium growth at 100 ug/ml […]. Format: functional. Conditions: 168 h, read-out: GI.

In the case of `CNc1ccccc1N(C)C(=O)CCl`, the inhibition of growth at 100 µg/mL is 64.4% in the test on Botrytis cinerea; less than 5% with Cytospora; 41.3% in test [1]; 25.3% in the test with Alternaria solani; 30.1% in the test on Fusarium solani.

For `CC(=O)c1ccccc1OCc1nc2cc([N+](=O)[O-])ccc2n1C`, the inhibition of growth at 100 µg/mL with Botrytis cinerea was less than 5%; in the test on Cytospora, less than 5%; in test [1], less than 5%; in the test with Alternaria solani it was 13.8%; with Fusarium solani, less than 5%.

For the molecule `Cn1c(COc2ccc(F)cc2)nc2cc([N+](=O)[O-])ccc21`, the inhibition of growth at 100 µg/mL in the test with Botrytis cinerea was less than 5%; in the test with Cytospora, 22.4%; in test [1], less than 5%; in the test on Alternaria solani it was less than 5%; in the test on Fusarium solani it was 9.95%.

As for `CCCOC(=O)c1ccc(OCc2nc3ccccc3n2C)cc1`, the inhibition of growth at 100 µg/mL in the test on Botrytis cinerea was less than 5%; in the test on Cytospora, 48.3%; in test [1], 20.6%; with Alternaria solani it was 63.6%; in the test on Fusarium solani, 42.2%.

With `CC(=O)c1ccc(OCc2nc3cc([N+](=O)[O-])ccc3n2C)cc1`, the inhibition of growth at 100 µg/mL is 38.6% in the test with Botrytis cinerea; less than 5% in the test on Cytospora; less than 5% in test [1]; 33.5% with Alternaria solani; less than 5% in the test with Fusarium solani.

Regarding `Cn1c(COc2ccc(C(C)(C)C)cc2)nc2ccccc21`, the inhibition of growth at 100 µg/mL with Botrytis cinerea is 64.8%; in the test on Cytospora it was 28.2%; in test [1], 63.8%; with Alternaria solani, 23.6%; in the test on Fusarium solani, less than 5%.

For the molecule `Cn1c(COc2ccc(C(C)(C)C)cc2)nc2cc([N+](=O)[O-])ccc21`, the inhibition of growth at 100 µg/mL was 57.3% in the test on Botrytis cinerea; less than 5% in the test on Cytospora; 30.2% in test [1]; 30.2% in the test on Alternaria solani; less than 5% in the test on Fusarium solani.

Regarding `Cn1c(COc2cccc3ccccc23)nc2ccccc21`, the inhibition of growth at 100 µg/mL in the test with Botrytis cinerea is less than 5%; with Cytospora, 62.6%; in test [1] it was 22.2%; in the test on Alternaria solani it was 50.7%; with Fusarium solani, 53%.

Regarding `CC(=O)c1cccc(OCc2nc3cc([N+](=O)[O-])ccc3n2C)c1`, the inhibition of growth at 100 µg/mL is less than 5% with Botrytis cinerea; 51.9% with Cytospora; less than 5% in test [1]; less than 5% in the test with Alternaria solani; less than 5% in the test with Fusarium solani.

Regarding `Cn1c(COc2ccccc2)nc2cc([N+](=O)[O-])ccc21`, the inhibition of growth at 100 µg/mL was 7.89% with Botrytis cinerea; less than 5% in the test on Cytospora; less than 5% in test [1]; 10.5% in the test with Alternaria solani; 5.91% in the test on Fusarium solani.

Turning to `Cn1c(COc2ccc([N+](=O)[O-])cc2)nc2ccccc21`, the inhibition of growth at 100 µg/mL with Botrytis cinerea is less than 5%; in the test on Cytospora, 19.5%; in test [1], 41.3%; with Alternaria solani it was 11.3%; with Fusarium solani it was 8.6%.

On to `C=CCc1ccc(OCc2nc3cc([N+](=O)[O-])ccc3n2C)c(OC)c1`, for which the inhibition of growth at 100 µg/mL in the test with Botrytis cinerea is 24%; with Cytospora, less than 5%; in test [1] it was less than 5%; with Alternaria solani, 35.1%; with Fusarium solani, 25.4%.

For `COc1cc(C=O)ccc1OCc1nc2ccccc2n1C`, the inhibition of growth at 100 µg/mL with Botrytis cinerea is 15.2%; in the test with Cytospora, 10.2%; in test [1], less than 5%; with Alternaria solani, 40.9%; in the test on Fusarium solani it was 24.7%.

On to `COC(=O)c1ccc(OCc2nc3ccccc3n2C)cc1`, for which the inhibition of growth at 100 µg/mL in the test on Botrytis cinerea was 6.43%; in the test with Cytospora it was 31%; in test [1], less than 5%; in the test with Alternaria solani it was 64.6%; in the test on Fusarium solani it was 48.2%.

With `Cn1c(COc2ccc(C=O)cc2)nc2cc([N+](=O)[O-])ccc21`, the inhibition of growth at 100 µg/mL with Botrytis cinerea was less than 5%; with Cytospora, 9.48%; in test [1] it was less than 5%; in the test on Alternaria solani, 16.3%; in the test with Fusarium solani it was less than 5%.

`COc1cc(C(C)=O)ccc1OCc1nc2ccccc2n1C`: the inhibition of growth at 100 µg/mL was 59.1% in the test on Botrytis cinerea; 26% with Cytospora; 14.3% in test [1]; 17.9% in the test with Alternaria solani; less than 5% in the test with Fusarium solani.

On to `C=CCc1ccc(OCc2nc3ccccc3n2C)c(OC)c1`, for which the inhibition of growth at 100 µg/mL with Botrytis cinerea stood at 47.4%; with Cytospora, 49.7%; in test [1] it was 38.1%; in the test on Alternaria solani, 40.1%; with Fusarium solani it was 60.4%.

Consider `CCOC(=O)c1ccc(OCc2nc3cc([N+](=O)[O-])ccc3n2C)cc1`, for which the inhibition of growth at 100 µg/mL with Botrytis cinerea was less than 5%; with Cytospora, less than 5%; in test [1], less than 5%; in the test with Alternaria solani, 11.3%; with Fusarium solani it was less than 5%.

As to `CCCOC(=O)c1ccc(OCc2nc3cc([N+](=O)[O-])ccc3n2C)cc1`, the inhibition of growth at 100 µg/mL in the test with Botrytis cinerea is less than 5%; with Cytospora, 10.9%; in test [1], less than 5%; with Alternaria solani, 8.05%; in the test on Fusarium solani, 19.4%.

As to `COC(=O)c1ccc(OCc2nc3cc([N+](=O)[O-])ccc3n2C)cc1`, the inhibition of growth at 100 µg/mL with Botrytis cinerea was 32.2%; in the test with Cytospora it was less than 5%; in test [1] it was 59.1%; in the test on Alternaria solani it was less than 5%; in the test with Fusarium solani, 18%.

As to `Cn1c(COc2ccc(C=O)cc2)nc2ccccc21`, the inhibition of growth at 100 µg/mL in the test with Botrytis cinerea was less than 5%; in the test with Cytospora, 21%; in test [1] it was 49.2%; in the test with Alternaria solani it was 27.8%; in the test on Fusarium solani, 12%.

`Cn1c(COc2cccc3ccccc23)nc2cc([N+](=O)[O-])ccc21`: the inhibition of growth at 100 µg/mL in the test with Botrytis cinerea was less than 5%; in the test with Cytospora, less than 5%; in test [1] it was less than 5%; in the test on Alternaria solani, 19.5%; in the test on Fusarium solani, less than 5%.
